One assay concerns recombinant NL4-3 virus (NLRluc, Renilla luciferase in nef, Gag P373S). Briefly: HIV cell culture assay (Renilla luciferase reporter virus in MT-2 cells). It is filed as cell-based. The following applies: Renilla, NL43, read-out: 10% FBS EC50, 10% FBS, class symbols A/B/C. On the procedure:
MT-2 cells and 293T cells were obtained from the NIH AIDS Research and Reference Reagent Program. MT-2 cells were propagated in RPMI 1640 media supplemented with 10% heat inactivated fetal bovine serum, […]. The 293T cells were propagated in DMEM media supplemented with 10% heat inactivated fetal bovine serum (FBS), 100 units/ml penicillin G and 100 μg/ml streptomycin. The proviral DNA clone of NL4-3 was obtained from the NIH AIDS Research and Reference Reagent Program. A recombinant NL4-3 virus, in which a section of the nef gene from NL4-3 was replaced with the Renilla luciferase gene, was used as a reference virus. In addition, residue Gag P373 was converted to P373S. Briefly, the recombinant virus was prepared by transfection of the altered proviral clone of NL4-3. Transfections were performed in 293T cells using LipofectAMINE PLUS from Invitrogen (Carlsbad, Calif.), according to manufacturer's instruction. The virus was titered in MT-2 cells using luciferase enzyme activity as a marker. Luciferase was quantitated using the Dual Luciferase kit from Promega (Madison, Wis.), with modifications to the manufacturer's protocol. The diluted Passive Lysis solution was pre-mixed with the re-suspended Luciferase Assay Reagent and the re-suspended Stop & Glo Substrate (2:1:1 ratio). Fifty (50) μL of the mixture was added to each aspirated well on assay plates and luciferase activity was measured immediately on a Wallac TriLux (Perkin-Elmer). Antiviral activities of inhibitors toward the recombinant virus were quantified by measuring luciferase activity in cells infected for 4-5 days with NLRluc recombinants in the presence serial dilutions of the inhibitor. Table 16 is the key for the data in Table 17.
On the technique in general: A reporter such as luciferase makes a cellular process visible.
Turning to `CC1(C)C(c2ccc(C(=O)O)cc2)=CC[C@]2(C)CN(C(=O)c3ccc4[nH]ccc4c3)CC=C12` [Example 43], the EC50 was above 3000 nM. Regarding `CC1(C)C(c2ccc(C(=O)O)cc2)=CC[C@]2(C)CN(C(=O)c3cncc(C(=O)O)c3)CC=C12` [Example 45], the EC50 was above 3000 nM. On to `CC1(C)C(c2ccc(C(=O)O)cc2)=CC[C@]2(C)CN(C(=O)c3ccc(CN)cc3)CC=C12` [Example 53], for which the EC50 was above 3000 nM. Still for that read-out and setting: then `CC(C)C[C@H](N)C(=O)N1CCC(C(=O)N2CC=C3C(C)(C)C(c4ccc(C(=O)O)cc4)=CC[C@]3(C)C2)(c2ccccc2)CC1` [Example 56], with below 500 nM. Same read-out and setting: then `CC1(C)C(c2ccc(C(=O)O)cc2)=CC[C@]2(C)CN(C(=O)c3cccc(C(=O)N4CC=C5C(C)(C)C(c6ccc(C(=O)O)cc6)=CC[C@]5(C)C4)c3)CC=C12` [Example 58, 4,4′-((8aS,8a′S)-isophthaloylbis(5,5,8a-trimethyl-1,2,3,5,8,8a-hexahydroisoquinoline-2,6-diyl))dibenzoic acid], with below 500 nM.

With `CC1(C)C(c2ccc(C(=O)O)cc2)=CC[C@]2(C)CN(C(=O)c3ccccc3C(=O)N3CC=C4C(C)(C)C(c5ccc(C(=O)O)cc5)=CC[C@]4(C)C3)CC=C12` [Example 60], the EC50 is 500 to 3000 nM. For `CC1(C)C(c2ccc(C(=O)O)cc2)=CC[C@]2(C)CN(C(=O)c3cccc(C(=O)N4CC=C5C(C)(C)C(c6ccc(C(=O)O)cc6)=CC[C@]5(C)C4)n3)CC=C12` [Example 61], the EC50 is above 3000 nM.

On to `CC1(C)C(c2ccc(C(=O)O)cc2)=CC[C@]2(C)CN(C(=O)c3ccc(C(=O)N4CC=C5C(C)(C)C(c6ccc(C(=O)O)cc6)=CC[C@]5(C)C4)s3)CC=C12` [Example 62], for which the EC50 was above 3000 nM. Same read-out and setting: then `CC1(C)C(c2ccc(C(=O)O)cc2)=CC[C@]2(C)CN(C(=O)c3cncc(C(=O)N4CC=C5C(C)(C)C(c6ccc(C(=O)O)cc6)=CC[C@]5(C)C4)c3)CC=C12` [Example 63], with above 3000 nM; and `CC1(C)C(c2ccc(C(=O)O)cc2)=CC[C@]2(C)CN(C(=O)c3cccc(C(=O)NCCCN4CCS(=O)(=O)CC4)c3)CC=C12` [Example 66], with above 3000 nM. Same read-out and setting: then `CC1(C)C(c2ccc(C(=O)O)cc2)=CC[C@]2(C)CN(C(=O)c3ccccc3C(=O)N3CCS(=O)(=O)CC3)CC=C12` [Example 67], with above 3000 nM; and `CC1(C)C(c2ccc(C(=O)O)cc2)=CC[C@]2(C)CN(C(=O)c3cccc(C(=O)N4CCS(=O)(=O)CC4)c3)CC=C12` [Example 68], with above 3000 nM.

In the case of `CC1(C)C(c2ccc(C(=O)O)cc2)=CC[C@]2(C)CN(C(=O)c3ccc(C(=O)N4CCS(=O)(=O)CC4)cc3)CC=C12` [Example 69], the EC50 was above 3000 nM. With `CC1(C)C(c2ccc(C(=O)O)cc2)=CC[C@]2(C)CN(C(=O)c3cccc(C(=O)NCCCN4CCS(=O)(=O)CC4)n3)CC=C12` [Example 70], the EC50 was above 3000 nM.

`CC1(C)C(c2ccc(C(=O)O)cc2)=CC[C@]2(C)CN(C(=O)c3cncc(C(=O)NCCCN4CCS(=O)(=O)CC4)c3)CC=C12` [Example 71]: the EC50 was above 3000 nM. With `CC1(C)C(c2ccc(C(=O)O)cc2)=CC[C@]2(C)CN(C(=O)c3ccc(C(=O)NCCCN4CCS(=O)(=O)CC4)s3)CC=C12` [Example 72], the EC50 is above 3000 nM. Still for that read-out and setting: then `CC1(C)C(c2ccc(C(=O)O)cc2)=CC[C@]2(C)CN(C(=O)c3cscc3C(=O)NCCCN3CCS(=O)(=O)CC3)CC=C12` [Example 73], with above 3000 nM; and `CC1(C)C(c2ccc(C(=O)O)cc2)=CC[C@]2(C)CN(c3ncc(Br)s3)CC=C12` [Example 77], with above 3000 nM. Consider `CC1(C)C(c2ccc(C(=O)O)cc2)=CC[C@]2(C)CN(CCN3CCS(=O)(=O)CC3)CC=C12` [Example 79], for which the EC50 is above 3000 nM. As for `CC1(C)C(c2ccc(C(=O)O)cc2)=CC[C@]2(C)CN(C(=O)c3ccccc3-c3nc4ccccc4n3CCN3CCS(=O)(=O)CC3)CC=C12` [Example 81], the EC50 lay within 500 to 3000 nM. In the case of `CC(C)(C)OC(=O)N1CCN(c2ccccc2C(=O)N2CCC3C(C)(C)C(c4ccc(C(=O)O)cc4)CC[C@]3(C)C2)CC1` (stereo partly drawn) [Example 83, 4-((8aS)-2-(2-(4-(tert-butoxycarbonyl)piperazin-1-yl)benzoyl)-5,5,8a-trimethyldecahydroisoquinolin-6-yl)benzoic acid], the EC50 is below 500 nM. Still for that read-out and setting: the same measure for `CC1(C)C2CCN(C(=O)c3ccccc3-c3nc4ccccc4[nH]3)C[C@@]2(C)CC[C@@H]1c1ccc(C(=O)O)cc1` (stereo partly shown) [Example 85]: below 500 nM; for `CC(C)C[C@@H](NC(=O)OC(C)(C)C)C(=O)N1CCC(C(=O)N2CC[C@H]3C(C)(C)[C@@H](c4ccc(C(=O)O)cc4)CC[C@]3(C)C2)(c2ccccc2)CC1` [Example 86]: below 500 nM; for `CC(C)C[C@@H](NC(=O)OC(C)(C)C)C(=O)N1CCC(C(=O)N2CC=C3C(C)(C)[C@@H](c4ccc(C(=O)O)cc4)CC[C@]3(C)C2)(c2ccccc2)CC1` [Example 88]: below 500 nM.

The same assay, now with this note: Renilla, NL43, read-out: 10% FBS EC50, 10% FBS, numeric values.
Regarding `CC1(C)C(c2ccc(C(=O)O)cc2)=CC[C@]2(C)CN(C(=O)c3ccccc3N3CCN(CCN4CCS(=O)(=O)CC4)CC3)CC=C12` [Example 44], the EC50 stood at 520 nM. Turning to `CC(C)(C)OC(=O)N1CCC(C(=O)N2CC=C3C(C)(C)C(c4ccc(C(=O)O)cc4)=CC[C@]3(C)C2)(c2ccccc2)CC1` [Example 46], the EC50 was found to be 250 nM. For the compound `CC(C)(C)OC(=O)N1CCC(Cc2ccccc2)(C(=O)N2CC=C3C(C)(C)C(c4ccc(C(=O)O)cc4)=CC[C@]3(C)C2)CC1` [Example 47], the EC50 was 1070 nM. The same measure, in the same setting: then `CC(C)(C)OC(=O)N1CCC(C)(C(=O)N2CC=C3C(C)(C)C(c4ccc(C(=O)O)cc4)=CC[C@]3(C)C2)CC1` [Example 48], with 270 nM; and `CC(C)C1(C(=O)N2CC=C3C(C)(C)C(c4ccc(C(=O)O)cc4)=CC[C@]3(C)C2)CCN(C(=O)OC(C)(C)C)CC1` [Example 49], with 1180 nM; and `CC(C)(C)OC(=O)N1CCC(C(=O)N2CC=C3C(C)(C)C(c4ccc(C(=O)O)cc4)=CC[C@]3(C)C2)(C2CCCCC2)CC1` [Example 50], with 290 nM.

With `CC1(C)C(c2ccc(C(=O)O)cc2)=CC[C@]2(C)CN(C(=O)c3ccccc3N3CCNCC3)CC=C12` [Example 51, (S)-4-(5,5,8a-trimethyl-2-(2-(piperazin-1-yl)benzoyl)-1,2,3,5,8,8a-hexahydroisoquinolin-6-yl)benzoic acid], the EC50 came to 870 nM. The same measure, in the same setting: the same measure for `CC1(C)C(c2ccc(C(=O)O)cc2)=CC[C@]2(C)CN(C(=O)[C@H]3CC[C@H](N)CC3)CC=C12` [Example 52]: 3620 nM.

Regarding `CC1(C)C(c2ccc(C(=O)O)cc2)=CC[C@]2(C)CN(C(=O)C3(Cc4ccccc4)CCNCC3)CC=C12` [Example 55], the EC50 is 3040 nM. Turning to `CC(C)C[C@@H](N)C(=O)N1CCC(C(=O)N2CC=C3C(C)(C)C(c4ccc(C(=O)O)cc4)=CC[C@]3(C)C2)(c2ccccc2)CC1` [Example 57], the EC50 was 148 nM. As to `CC1(C)C(c2ccc(C(=O)O)cc2)=CC[C@]2(C)CN(C(=O)c3ccc(C(=O)N4CC=C5C(C)(C)C(c6ccc(C(=O)O)cc6)=CC[C@]5(C)C4)cc3)CC=C12` [Example 59], the EC50 is 1050 nM.

In the case of `CC1(C)C(c2ccc(C(=O)O)cc2)=CC[C@]2(C)CN(C(=O)c3cscc3C(=O)N3CC=C4C(C)(C)C(c5ccc(C(=O)O)cc5)=CC[C@]4(C)C3)CC=C12` [Example 64], the EC50 worked out at 1060 nM. On to `CC1(C)C(c2ccc(C(=O)O)cc2)=CC[C@]2(C)CN(C(=O)C3C4CCC(C4)C3C(=O)N3CC=C4C(C)(C)C(c5ccc(C(=O)O)cc5)=CC[C@]4(C)C3)CC=C12` (stereo partly shown) [Example 65], for which the EC50 came out at 2810 nM. As to `CC1(C)C(c2ccc(C(=O)O)cc2)=CC[C@]2(C)CN(c3ncnc(NCCCN4CCS(=O)(=O)CC4)n3)CC=C12` [Example 74, (S)-4-(2-(4-((3-(1,1-dioxidothiomorpholino)propyl)amino)-1,3,5-triazin-2-yl)-5,5,8a-trimethyl-1,2,3,5,8,8a-hexahydroisoquinolin-6-yl)benzoic acid], the EC50 was 340 nM.

With `CC1(C)C(c2ccc(C(=O)O)cc2)=CC[C@]2(C)CN(c3ncnc(N4CC=C5C(C)(C)C(c6ccc(C(=O)O)cc6)=CC[C@]5(C)C4)n3)CC=C12` [Example 75], the EC50 is 190 nM.

Turning to `CC1(C)C(c2ccc(C(=O)O)cc2)=CC[C@]2(C)CN(c3cccc(Br)n3)CC=C12` [Example 76], the EC50 was 980 nM. Same read-out and setting: the same measure for `CC1(C)C(c2ccc(C(=O)O)cc2)=CC[C@]2(C)CN(c3nc4ccccc4s3)CC=C12` [Example 80]: 179 nM; for `CC(C)(C)OC(=O)N1CCC(C(=O)N2CCC3C(C)(C)[C@@H](c4ccc(C(=O)O)cc4)CC[C@]3(C)C2)(c2ccccc2)CC1` (stereo partly shown) [Example 84]: 50 nM. Regarding `CC(C)C[C@H](NC(=O)OC(C)(C)C)C(=O)N1CCC(C(=O)N2CC[C@H]3C(C)(C)[C@@H](c4ccc(C(=O)O)cc4)CC[C@]3(C)C2)(c2ccccc2)CC1` [Example 87], the EC50 turned out to be 101 nM.

For the origin of these results see patent publication US10493070B2 (priority 2016, dated 2019).
